In US6355799B1, “Substituted benzene compounds, process for their preparation, and herbicidal and defoliant compositions containing them” (ISK Americas Incorporated, priority 1997, dated 2002):

Experiments:
Format in all cases: in vivo
[1] = tested on: redroot pigweed (Amaranthus retroflexus, AMARE); experiment: Pre-emerge test, greenhouse herbicide activity screening; conditions: for Pre-emerge Herbicidal Activity, phytotoxicity rating (0-100), AMARE: rated 14 days after application, 0 = no damage, 100 = complete death; for phytotoxicity rating AMARE: pre-emerge, 14 days after application, scale 0-100
Method in brief: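 Plants grown in 10 cm pots of sandy loam mix received acetone-dissolved compounds through a moving flat-fan nozzle. Doses ranged from 15 to 1000 g ai/ha. Pre-emerge pots were seeded one day earlier, post-emerge pots 8–21 days earlier. Fourteen days on, each pot was graded 0–100 for damage.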

[2] = tested on: barnyardgrass (Echinochloa crus-galli, ECHCG); experiment: as above; conditions: for Pre-emerge Herbicidal Activity, phytotoxicity rating (0-100), ECHCG: rated 14 days after application, 0 = no damage, 100 = complete death; for phytotoxicity rating ECHCG: pre-emerge, 14 days after application, scale 0-100
Method in brief: (§1)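 Herbicidal damage is scored 0 (none) to 100 (complete plant death) two weeks after a simulated field spray. Rates span 15–1000 g ai/ha, delivered in acetone at 187 l/ha. For post-emergence treatments, plants have 2–3 leaves and the spray carries 0.25% v/v non-ionic surfactant.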

[3] = tested on: green foxtail (Setaria viridis, SETVI); experiment: as above; conditions: for Pre-emerge Herbicidal Activity, phytotoxicity rating (0-100), SETVI: rated 14 days after application, 0 = no damage, 100 = complete death; for phytotoxicity rating SETVI: pre-emerge, 14 days after application, scale 0-100
Method in brief: as §1

[4] = tested on: ivyleaf morningglory (Ipomoea hederacea, IPOHE); experiment: as above; conditions: for Pre-emerge Herbicidal Activity, phytotoxicity rating (0-100), IPOHE: rated 14 days after application, 0 = no damage, 100 = complete death; for phytotoxicity rating IPOHE: pre-emerge, 14 days after application, scale 0-100
Method in brief: as §1

[5] = tested on: johnsongrass (Sorghum halepense, SORHA); experiment: as above; conditions: for Pre-emerge Herbicidal Activity, phytotoxicity rating (0-100), SORHA: rated 14 days after application, 0 = no damage, 100 = complete death; for phytotoxicity rating SORHA: pre-emerge, 14 days after application, scale 0-100
Method in brief: as §1

[6] = tested on: lambsquarters (Chenopodium album, CHEAL); experiment: as above; conditions: for Pre-emerge Herbicidal Activity, phytotoxicity rating (0-100), CHEAL: rated 14 days after application, 0 = no damage, 100 = complete death; for phytotoxicity rating CHEAL: pre-emerge, 14 days after application, scale 0-100
Method in brief: as §1

[7] = tested on: large crabgrass (Digitaria sanguinalis, DIGSA); experiment: as above; conditions: for Pre-emerge Herbicidal Activity, phytotoxicity rating (0-100), DIGSA: rated 14 days after application, 0 = no damage, 100 = complete death; for phytotoxicity rating DIGSA: pre-emerge, 14 days after application, scale 0-100
Method in brief: as §1

[8] = tested on: sicklepod (Cassia obtusifolia, CASOB); experiment: as above; conditions: for Pre-emerge Herbicidal Activity, phytotoxicity rating (0-100), CASOB: rated 14 days after application, 0 = no damage, 100 = complete death; for phytotoxicity rating CASOB: pre-emerge, 14 days after application, scale 0-100
Method in brief: as §1

[9] = tested on: velvetleaf (Abutilon theophrasti, ABUTH); experiment: as above; conditions: for Pre-emerge Herbicidal Activity, phytotoxicity rating (0-100), ABUTH: rated 14 days after application, 0 = no damage, 100 = complete death; for phytotoxicity rating ABUTH: pre-emerge, 14 days after application, scale 0-100
Method in brief: as §1

[10] = tested on: field corn (Zea mays L., var. Dekalb 535, CORN); experiment: Pre-emerge test, crop safety; conditions: for Pre-emerge phytotoxicity rating (0-100), crop damage, CORN: rated 14 days after application, 0 = no damage, 100 = complete death; for phytotoxicity rating CORN (crop damage): pre-emerge, 14 days after application, scale 0-100
Method in brief: (§2)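 Visual ratings on a 0-100 scale (0 no damage, 100 all plants dead) were taken at 14 days after treatment. Rates of 15-1000 g ai/ha in acetone, 187 l/ha, were sprayed onto soil one day after planting (pre-emerge) or onto 2-3 leaf plants with 0.25% v/v surfactant (post-emerge).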

[11] = tested on: upland rice (Oryza sp., var. Tebonnet, RICE); experiment: Pre-emerge test, crop safety; conditions: for Pre-emerge phytotoxicity rating (0-100), crop damage, RICE: rated 14 days after application, 0 = no damage, 100 = complete death; for phytotoxicity rating RICE (crop damage): pre-emerge, 14 days after application, scale 0-100
Method in brief: as §2

[12] = tested on: barnyardgrass (Echinochloa crus-galli, ECHCG); experiment: Post-emerge test, greenhouse herbicide activity screening; conditions: post-emerge, 14 days after application, rating scale 0-100
Method in brief: (§3)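 Each test used a mechanized track sprayer delivering 187 l/ha of acetone solution at 15–1000 g ai/ha. Post-emerge foliage at 2–3 leaves was treated with added 0.25% v/v non-ionic surfactant and bottom-watered only. Injury was assessed on day 14, where 100 means total kill.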

[13] = tested on: green foxtail (Setaria viridis, SETVI); experiment: as above; conditions: post-emerge, 14 days after application, rating scale 0-100
Method in brief: as §3

[14] = tested on: ivyleaf morningglory (Ipomoea hederacea, IPOHE); experiment: as above; conditions: post-emerge, 14 days after application, rating scale 0-100
Method in brief: as §3

[15] = tested on: johnsongrass (Sorghum halepense, SORHA); experiment: as above; conditions: post-emerge, 14 days after application, rating scale 0-100
Method in brief: as §3

[16] = tested on: lambsquarters (Chenopodium album, CHEAL); experiment: as above; conditions: post-emerge, 14 days after application, rating scale 0-100
Method in brief: as §3

[17] = tested on: large crabgrass (Digitaria sanguinalis, DIGSA); experiment: as above; conditions: post-emerge, 14 days after application, rating scale 0-100
Method in brief: as §3

[18] = tested on: redroot pigweed (Amaranthus retroflexus, AMARE); experiment: as above; conditions: post-emerge, 14 days after application, rating scale 0-100
Method in brief: as §3

[19] = tested on: sicklepod (Cassia obtusifolia, CASOB); experiment: as above; conditions: post-emerge, 14 days after application, rating scale 0-100
Method in brief: as §3

[20] = tested on: velvetleaf (Abutilon theophrasti, ABUTH); experiment: as above; conditions: post-emerge, 14 days after application, rating scale 0-100
Method in brief: as §3

[21] = tested on: field corn (Zea mays L., var. Dekalb 535, CORN); experiment: Post-emerge test, crop safety; conditions: post-emerge, 14 days after application, rating scale 0-100
Method in brief: as §1

[22] = tested on: upland rice (Oryza sp., var. Tebonnet, RICE); experiment: Post-emerge test, crop safety; conditions: post-emerge, 14 days after application, rating scale 0-100
Method in brief: as §1

SMILES: Cn1c(C(F)(F)F)cc(=O)n(-c2c(F)cc(Cl)c(O)c2NC(=O)c2ncccn2)c1=O [2-102]
- Pre-emerge Herbicidal Activity, phytotoxicity rating (0-100), AMARE ([1]; 63 g ai/ha): 30
- Pre-emerge Herbicidal Activity, phytotoxicity rating (0-100), AMARE ([1]; 250 g ai/ha): 0
- Pre-emerge Herbicidal Activity, phytotoxicity rating (0-100), ECHCG ([2]; 63 g ai/ha): 0
- Pre-emerge Herbicidal Activity, phytotoxicity rating (0-100), ECHCG ([2]; 250 g ai/ha): 0
- Pre-emerge Herbicidal Activity, phytotoxicity rating (0-100), SETVI ([3]; 63 g ai/ha): 0
- Pre-emerge Herbicidal Activity, phytotoxicity rating (0-100), SETVI ([3]; 250 g ai/ha): 0
- Pre-emerge Herbicidal Activity, phytotoxicity rating (0-100), IPOHE ([4]; 63 g ai/ha): 0
- Pre-emerge Herbicidal Activity, phytotoxicity rating (0-100), IPOHE ([4]; 250 g ai/ha): 0
- Pre-emerge Herbicidal Activity, phytotoxicity rating (0-100), SORHA ([5]; 63 g ai/ha): 0
- Pre-emerge Herbicidal Activity, phytotoxicity rating (0-100), SORHA ([5]; 250 g ai/ha): 0
- Pre-emerge Herbicidal Activity, phytotoxicity rating (0-100), CHEAL ([6]; 63 g ai/ha): 0
- Pre-emerge Herbicidal Activity, phytotoxicity rating (0-100), CHEAL ([6]; 250 g ai/ha): 0
- Pre-emerge Herbicidal Activity, phytotoxicity rating (0-100), DIGSA ([7]; 63 g ai/ha): 0
- Pre-emerge Herbicidal Activity, phytotoxicity rating (0-100), DIGSA ([7]; 250 g ai/ha): 0
- Pre-emerge Herbicidal Activity, phytotoxicity rating (0-100), CASOB ([8]; 63 g ai/ha): 0
- Pre-emerge Herbicidal Activity, phytotoxicity rating (0-100), CASOB ([8]; 250 g ai/ha): 0
- Pre-emerge Herbicidal Activity, phytotoxicity rating (0-100), ABUTH ([9]; 63 g ai/ha): 0
- Pre-emerge Herbicidal Activity, phytotoxicity rating (0-100), ABUTH ([9]; 250 g ai/ha): 0
- Pre-emerge phytotoxicity rating (0-100), crop damage, CORN ([10]; 63 g ai/ha): 0
- Pre-emerge phytotoxicity rating (0-100), crop damage, CORN ([10]; 250 g ai/ha): 0
- Pre-emerge phytotoxicity rating (0-100), crop damage, RICE ([11]; 63 g ai/ha): 0
- Pre-emerge phytotoxicity rating (0-100), crop damage, RICE ([11]; 250 g ai/ha): 0
- phytotoxicity rating ECHCG ([12]; 63 g ai/ha): 0
- phytotoxicity rating ECHCG ([12]; 250 g ai/ha): 0
- phytotoxicity rating SETVI ([13]; 63 g ai/ha): 0
- phytotoxicity rating SETVI ([13]; 250 g ai/ha): 0
- phytotoxicity rating IPOHE ([14]; 63 g ai/ha): 0
- phytotoxicity rating IPOHE ([14]; 250 g ai/ha): 0
- phytotoxicity rating SORHA ([15]; 63 g ai/ha): 0
- phytotoxicity rating SORHA ([15]; 250 g ai/ha): 0
- phytotoxicity rating CHEAL ([16]; 63 g ai/ha): 0
- phytotoxicity rating CHEAL ([16]; 250 g ai/ha): 0
- phytotoxicity rating DIGSA ([17]; 63 g ai/ha): 0
- phytotoxicity rating DIGSA ([17]; 250 g ai/ha): 0
- phytotoxicity rating AMARE ([18]; 63 g ai/ha): 0
- phytotoxicity rating AMARE ([18]; 250 g ai/ha): 40
- phytotoxicity rating CASOB ([19]; 63 g ai/ha): 0
- phytotoxicity rating CASOB ([19]; 250 g ai/ha): 0
- phytotoxicity rating ABUTH ([20]; 63 g ai/ha): 0
- phytotoxicity rating ABUTH ([20]; 250 g ai/ha): 30
- phytotoxicity rating CORN ([21]; 63 g ai/ha): 0
- phytotoxicity rating CORN ([21]; 250 g ai/ha): 0
- phytotoxicity rating RICE ([22]; 63 g ai/ha): 0
- phytotoxicity rating RICE ([22]; 250 g ai/ha): 0

SMILES: COc1c(Cl)cc(F)c(-n2c(=O)cc(C(F)(F)F)n(C)c2=O)c1NC(=O)c1cc2ccccc2cc1C [2-155]
- phytotoxicity rating AMARE ([1]; 63 g ai/ha): 100
- phytotoxicity rating AMARE ([1]; 125 g ai/ha): 100
- phytotoxicity rating ECHCG ([2]; 63 g ai/ha): 50
- phytotoxicity rating ECHCG ([2]; 125 g ai/ha): 70
- phytotoxicity rating SETVI ([3]; 63 g ai/ha): 60
- phytotoxicity rating SETVI ([3]; 125 g ai/ha): 95
- phytotoxicity rating IPOHE ([4]; 63 g ai/ha): 0
- phytotoxicity rating IPOHE ([4]; 125 g ai/ha): 40
- phytotoxicity rating SORHA ([5]; 63 g ai/ha): 30
- phytotoxicity rating SORHA ([5]; 125 g ai/ha): 70
- phytotoxicity rating CHEAL ([6]; 63 g ai/ha): 100
- phytotoxicity rating CHEAL ([6]; 125 g ai/ha): 100
- phytotoxicity rating DIGSA ([7]; 63 g ai/ha): 85
- phytotoxicity rating DIGSA ([7]; 125 g ai/ha): 100
- phytotoxicity rating CASOB ([8]; 63 g ai/ha): 0
- phytotoxicity rating CASOB ([8]; 125 g ai/ha): 30
- phytotoxicity rating ABUTH ([9]; 63 g ai/ha): 100
- phytotoxicity rating ABUTH ([9]; 125 g ai/ha): 100
- phytotoxicity rating CORN (crop damage) ([10]; 63 g ai/ha): 0
- phytotoxicity rating CORN (crop damage) ([10]; 125 g ai/ha): 15
- phytotoxicity rating RICE (crop damage) ([11]; 63 g ai/ha): 30
- phytotoxicity rating RICE (crop damage) ([11]; 125 g ai/ha): 60
- ECHCG phytotoxicity rating ([12]; 63 g ai/ha): 30
- ECHCG phytotoxicity rating ([12]; 125 g ai/ha): 60
- SETVI phytotoxicity rating ([13]; 63 g ai/ha): 50
- SETVI phytotoxicity rating ([13]; 125 g ai/ha): 70
- IPOHE phytotoxicity rating ([14]; 63 g ai/ha): 100
- IPOHE phytotoxicity rating ([14]; 125 g ai/ha): 100
- SORHA phytotoxicity rating ([15]; 63 g ai/ha): 30
- SORHA phytotoxicity rating ([15]; 125 g ai/ha): 50
- CHEAL phytotoxicity rating ([16]; 63 g ai/ha): 100
- CHEAL phytotoxicity rating ([16]; 125 g ai/ha): 100
- DIGSA phytotoxicity rating ([17]; 63 g ai/ha): 40
- DIGSA phytotoxicity rating ([17]; 125 g ai/ha): 50
- AMARE phytotoxicity rating ([18]; 63 g ai/ha): 100
- AMARE phytotoxicity rating ([18]; 125 g ai/ha): 100
- CASOB phytotoxicity rating ([19]; 63 g ai/ha): 100
- CASOB phytotoxicity rating ([19]; 125 g ai/ha): 100
- ABUTH phytotoxicity rating ([20]; 63 g ai/ha): 100
- ABUTH phytotoxicity rating ([20]; 125 g ai/ha): 100
- CORN phytotoxicity rating (crop damage) ([21]; 63 g ai/ha): 70
- CORN phytotoxicity rating (crop damage) ([21]; 125 g ai/ha): 90
- RICE phytotoxicity rating (crop damage) ([22]; 63 g ai/ha): 25
- RICE phytotoxicity rating (crop damage) ([22]; 125 g ai/ha): 80
